Experimental data as given in patent US12419874B2, “GLP-1R agonist compound and use thereof” (Chongqing Pharmaceutical Research Institute Co., Ltd., priority 2024, dated 2025).

Target: GLP-1R (Homo sapiens, UniProt P43220)
Assay: GLP-1R agonistic activity by One-Lite luciferase assay in HEK293-GLP-1R-luc cells (Example 59)
Type: cell-based
Conditions: 6 h incubation, read-out: cAMP EC50
Experimental: The agonistic activities of the compounds of the present disclosure on GLP-1R were evaluated by detecting the generation of cAMP.
• (1) Cell line: HEK293-GLP-1R-luc Stable Cell Line (Cobioer, CBP71117); • (2) Culture medium: DMEM+10% FBS (Gibco); • (3) Kit: One-Lite™ kit Luciferase Assay System (Vazyme). 2. Experimental Procedures • (1) HEK293-GLP1R cells were inoculated in a 96-well plate at a density of 30000 cells per well; • (2) 10× working solution of each compound was formulated; • (3) 10 μL of 10× working solution of each compound was added to corresponding well and incubated at 37° C. for 6 h; • (4) 100 μL of One-Lite Luciferase Assay Substrate formulated using One-Lite Luciferase Assay Buffer was added to each well; • (5) The plate was incubated at room temperature for 3 min; • (6) The plate was read by a multimode microplate reader to detect chemiluminescence. 3. Data Analysis • (1) % Activity was calculated by the following formula: % Activity=100−(Signalcmpd−SignalAve-PC)/(SignalAve-VC−SignalAve-PC)×100 • (2) The dose-response curve was plotted to calculate EC50: Y=Bottom+(Top−Bottom)/(1+10^(Log EC50−X)*HillSlope)) • X: log of agonist concentration; Y: Activity. 4. Experimental Results

Chain of GLP-1R (P43220 24-463): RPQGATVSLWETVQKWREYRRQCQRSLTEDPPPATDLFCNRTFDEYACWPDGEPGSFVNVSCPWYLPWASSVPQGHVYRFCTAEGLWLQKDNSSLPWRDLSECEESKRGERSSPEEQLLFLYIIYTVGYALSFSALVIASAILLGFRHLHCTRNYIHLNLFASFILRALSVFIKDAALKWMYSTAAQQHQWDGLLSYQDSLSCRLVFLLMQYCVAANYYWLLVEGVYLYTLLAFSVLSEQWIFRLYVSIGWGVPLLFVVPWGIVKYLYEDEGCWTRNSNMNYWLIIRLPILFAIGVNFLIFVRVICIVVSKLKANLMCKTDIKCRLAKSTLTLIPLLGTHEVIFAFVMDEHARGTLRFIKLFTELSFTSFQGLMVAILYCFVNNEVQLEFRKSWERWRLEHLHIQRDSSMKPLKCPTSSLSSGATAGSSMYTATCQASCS

SMILES	EC50 [nM]
Cc1cc(-n2nc3c(c2-n2ccn(-c4ccc5c(cnn5C)c4F)c2=O)[C@H](C)N(C(=O)c2cc4cc([C@H]5CCOC(C)(C)C5)ccc4n2[C@@]2(c4noc(=O)[nH]4)C[C@@H]2C)CC32CCC(=O)C2)cc(C)c1F (stereo partly shown) [Compound 208]	≤ 20
Cc1cc(-n2nc3c(c2-n2ccn(-c4ccc5c(cnn5C)c4F)c2=O)[C@H](C)N(C(=O)c2cc4cc([C@H]5CCOC(C)(C)C5)ccc4n2[C@@]2(c4noc(=O)[nH]4)C[C@@H]2C)CC32CN(C)C2)cc(C)c1F [Compound 164]	≤ 20
Cc1cc(-n2nc3c(c2-n2ccn(-c4ccc5c(cnn5C)c4F)c2=O)[C@H](C)N(C(=O)c2cc4cc([C@H]5CCOC(C)(C)C5)ccc4n2[C@@]2(c4noc(=O)[nH]4)C[C@@H]2C)CC32CCN(C(=O)C(F)(F)F)CC2)cc(C)c1F [Compound 155]	≤ 20
Cc1cc(-n2nc3c(c2-n2ccn(-c4ccc5c(cnn5C)c4F)c2=O)[C@H](C)N(C(=O)c2cc4cc([C@H]5CCOC(C)(C)C5)ccc4n2[C@@]2(c4noc(=O)[nH]4)C[C@@H]2C)CC32CCCC2)cc(C)c1F [Compound 25]	≤ 20
Cc1cc(-n2nc3c(c2-n2ccn(-c4ccc5c(cnn5C)c4F)c2=O)[C@H](C)N(C(=O)c2cc4cc([C@H]5CCOC(C)(C)C5)ccc4n2[C@@]2(c4noc(=O)[nH]4)C[C@@H]2C)CC32CN(C=O)C2)cc(C)c1F [Compound 165]	≤ 20
Cc1cc(-n2nc3c(c2-n2ccn(-c4ccc5c(cnn5C)c4F)c2=O)[C@H](C)N(C(=O)c2cc4cc([C@H]5CCOC(C)(C)C5)ccc4n2[C@@]2(c4noc(=O)[nH]4)C[C@@H]2C)CC32CNC2)cc(C)c1F [Compound 15]	≤ 20
Cc1cc(-n2nc3c(c2-n2ccn(-c4ccc5c(cnn5C)c4F)c2=O)[C@H](C)N(C(=O)c2cc4cc([C@H]5CCOC(C)(C)C5)ccc4n2[C@@]2(c4noc(=O)[nH]4)C[C@@H]2C)CC32CCSCC2)cc(C)c1F [Compound 188]	≤ 20
CNC(=O)N1CCC2(CC1)CN(C(=O)c1cc3cc([C@H]4CCOC(C)(C)C4)ccc3n1[C@@]1(c3noc(=O)[nH]3)C[C@@H]1C)[C@@H](C)c1c2nn(-c2cc(C)c(F)c(C)c2)c1-n1ccn(-c2ccc3c(cnn3C)c2F)c1=O [Compound 163]	≤ 20
Cc1cc(-n2nc3c(c2-n2ccn(-c4ccc5nn(CC(F)(F)F)cc5c4F)c2=O)[C@H](C)N(C(=O)c2cc4cc([C@H]5CCOC(C)(C)C5)ccc4n2[C@@]2(c4noc(=O)[nH]4)C[C@@H]2C)CC32CC2)cc(C)c1F [Compound 224]	20 to 100
Cc1cc(-n2nc3c(c2-n2ccn(-c4ccc5c(cnn5C)c4F)c2=O)[C@H](C)N(C(=O)c2cc4cc([C@H]5CCOC(C)(C)C5)ccc4n2[C@@]2(c4noc(=O)[nH]4)C[C@@H]2C)CC32CCN(C=O)C2)cc(C)c1F (stereo partly shown) [Compound 83]	≤ 20
Cc1cc(-n2nc3c(c2-n2ccn(-c4ccc5c(cnn5C)c4F)c2=O)[C@H](C)N(C(=O)c2cc4cc([C@H]5CCOC(C)(C)C5)ccc4n2[C@@]2(c4noc(=O)[nH]4)C[C@@H]2C)CC32C=CCC2)cc(C)c1F (stereo partly shown) [Compound 197]	≤ 20
Cc1cc(-n2nc3c(c2-n2ccn(-c4ccc5c(cnn5C)c4F)c2=O)[C@H](C)N(C(=O)c2cc4cc(C5CCOCC5)ccc4n2C2(c4noc(=O)[nH]4)CC2)CC32CC2)cc(C)c1F [Compound 174]	100 to 300
Cc1cc(-n2nc3c(c2-n2ccn(-c4ccc5c(cnn5C)c4F)c2=O)[C@H](C)N(C(=O)c2cc4cc([C@H]5CCOC(C)(C)C5)ccc4n2[C@@]2(c4noc(=O)[nH]4)C[C@@H]2C)CC32CCN(C(=O)C3CC3)CC2)cc(C)c1F [Compound 157]	≤ 20
C[C@H]1c2c(nn(-c3ccc(F)c(C4CC4)c3)c2-n2ccn(-c3ccc4c(cnn4C)c3F)c2=O)C2(CC2)CN1C(=O)c1cc2cc(C3CCOC(C)(C)C3)ccn2c1C1(c2noc(=O)[nH]2)CC1 (single isomer, unassigned) [Compound 186-A]	> 300
Cc1cc(-n2nc3c(c2-n2ccn(-c4ccc5c(cnn5C)c4F)c2=O)[C@H](C)N(C(=O)c2cc4cc(C5CCOCC5)ccc4n2[C@@]2(c4noc(=O)[nH]4)C[C@@H]2C)CC32CC2)cc(C)c1F [Compound 175]	20 to 100
Cc1cc(-n2nc3c(c2-n2ccn(-c4ccc5c(cnn5C)c4F)c2=O)[C@H](C)N(C(=O)c2cc4cc([C@H]5CCOC(C)(C)C5)ccc4n2[C@@]2(c4noc(=O)[nH]4)C[C@@H]2C)CC32CCCCC2)cc(C)c1F [Compound 37]	20 to 100
Cc1cc(-n2nc3c(c2-n2ccn(-c4ccc5c(cnn5C)c4F)c2=O)[C@H](C)N(C(=O)c2cc4cc([C@H]5CCOC(C)(C)C5)ccc4n2[C@@]2(c4noc(=O)[nH]4)C[C@@H]2C)CC32CCN(C=O)CC2)cc(C)c1F [Compound 64]	≤ 20

SMILES	EC50 [nM]
CC(=O)N1CC2(C1)CN(C(=O)c1cc3cc([C@H]4CCOC(C)(C)C4)ccc3n1[C@@]1(c3noc(=O)[nH]3)C[C@@H]1C)[C@@H](C)c1c2nn(-c2cc(C)c(F)c(C)c2)c1-n1ccn(-c2ccc3c(cnn3C)c2F)c1=O [Compound 166]	≤ 20
Cc1cc(-n2nc3c(c2-n2ccn(-c4ccc5c(cnn5CC(F)(F)F)c4F)c2=O)[C@H](C)N(C(=O)c2cc4cc([C@H]5CCOC(C)(C)C5)ccc4n2[C@@]2(c4noc(=O)[nH]4)C[C@@H]2C)CC32CC2)cc(C)c1F [Compound 223]	≤ 20
Cc1cc(-n2nc3c(c2-n2ccn(-c4ccc5c(ccn5C)c4F)c2=O)[C@H](C)N(C(=O)c2cc4cc([C@H]5CCOC(C)(C)C5)ccc4n2[C@@]2(c4noc(=O)[nH]4)C[C@@H]2C)CC32CCCNC2)cc(C)c1F (single isomer, unassigned) [Compound 51-A]	≤ 20
COC1CC2(C1)CN(C(=O)c1cc3cc([C@H]4CCOC(C)(C)C4)ccc3n1[C@@]1(c3noc(=O)[nH]3)C[C@@H]1C)[C@@H](C)c1c2nn(-c2cc(C)c(F)c(C)c2)c1-n1ccn(-c2ccc3c(cnn3C)c2F)c1=O (stereo partly shown) [Compound 184]	≤ 20
Cc1cc(-n2nc3c(c2-n2ccn(-c4ccc5c(cnn5C)c4F)c2=O)[C@H](C)N(C(=O)c2cc4cc([C@H]5CCOC(C)(C)C5)ccc4n2[C@@]2(c4noc(=O)[nH]4)C[C@@H]2C)CC32CCC(F)CC2)cc(C)c1F (stereo partly shown) [Compound 201]	20 to 100
Cc1cc(-n2nc3c(c2-n2ccn(-c4ccc5c(cnn5C)c4F)c2=O)[C@H](C)N(C(=O)c2cc4cc([C@H]5CCOC(C)(C)C5)ccc4n2[C@@]2(c4noc(=O)[nH]4)C[C@@H]2C)CC32CC(N)C2)cc(C)c1F (stereo partly shown) [Compound 183]	≤ 20
CCn1ncc2c(F)c(-n3ccn(-c4c5c(nn4-c4cc(C)c(F)c(C)c4)C4(CC4)CN(C(=O)c4cc6cc([C@H]7CCOC(C)(C)C7)ccc6n4[C@@]4(c6noc(=O)[nH]6)C[C@@H]4C)[C@H]5C)c3=O)ccc21 [Compound 222]	≤ 20
Cc1cc(-n2nc3c(c2-n2ccn(-c4ccc5c(cnn5C)c4F)c2=O)[C@H](C)N(C(=O)c2cc4cc([C@H]5CCOC(C)(C)C5)ccc4n2[C@@]2(c4noc(=O)[nH]4)C[C@@H]2C)CC32COC2)cc(C)c1F [Compound 21]	≤ 20
Cc1cc(-n2nc3c(c2-n2ccn(-c4ccc5c(cnn5C)c4F)c2=O)[C@H](C)N(C(=O)c2cc4cc([C@H]5CCOC(C)(C)C5)ccc4n2[C@@]2(c4noc(=O)[nH]4)C[C@@H]2C)CC32CCCN2)cc(C)c1F (stereo partly shown) [Compound 31]	≤ 20
Cc1cc(-n2nc3c(c2-n2ccn(-c4ccc5c(cnn5C)c4F)c2=O)[C@H](C)N(C(=O)c2cc4cc([C@H]5CCOC(C)(C)C5)ccc4n2[C@@]2(c4noc(=O)[nH]4)C[C@@H]2C)CC32CCC(F)(F)C2)cc(C)c1F (stereo partly shown) [Compound 212]	≤ 20
Cc1cc(-n2nc3c(c2-n2ccn(-c4ccc5c(cnn5C)c4F)c2=O)[C@H](C)N(C(=O)c2cc4cc([C@H]5CCOC(C)(C)C5)ccc4n2[C@@]2(c4noc(=O)[nH]4)C[C@@H]2C)CC32CCC(O)C2)cc(C)c1F (stereo partly shown) [Compound 209]	≤ 20
Cc1cc(-n2nc3c(c2-n2ccn(-c4ccc5c(cnn5C)c4F)c2=O)[C@H](C)N(C(=O)c2cc4cc([C@H]5CCOC(C)(C)C5)ccc4n2C2(c4noc(=O)[nH]4)CC2)CC32CC2)cc(C)c1F [Compound 169]	≤ 20
CC(=O)N1CCC2(CC1)CN(C(=O)c1cc3cc([C@H]4CCOC(C)(C)C4)ccc3n1[C@@]1(c3noc(=O)[nH]3)C[C@@H]1C)[C@@H](C)c1c2nn(-c2cc(C)c(F)c(C)c2)c1-n1ccn(-c2ccc3c(cnn3C)c2F)c1=O [Compound 91]	≤ 20
Cc1cc(-n2nc3c(c2-n2ccn(-c4ccc5c(cnn5C)c4F)c2=O)[C@H](C)N(C(=O)c2cc4cc(C5CCOC(C)(C)C5)ccn4c2C2(c4noc(=O)[nH]4)CC2)CC32CC2)cc(C)c1F (single isomer, unassigned) [Compound 185-A]	> 300
Cc1cc(-n2nc3c(c2-n2ccn(-c4ccc5c(cnn5C)c4F)c2=O)[C@H](C)N(C(=O)c2cc4cc(N5CCOC(C)(C)C5)ccc4n2C2(c4noc(=O)[nH]4)CC2)CC32CC2)cc(C)c1F [Compound 177]	≤ 20
COCC(=O)N1CCC2(CC1)CN(C(=O)c1cc3cc([C@H]4CCOC(C)(C)C4)ccc3n1[C@@]1(c3noc(=O)[nH]3)C[C@@H]1C)[C@@H](C)c1c2nn(-c2cc(C)c(F)c(C)c2)c1-n1ccn(-c2ccc3c(cnn3C)c2F)c1=O [Compound 158]	≤ 20
Cc1cc(-n2nc3c(c2-n2ccn(-c4ccc5c(cnn5C)c4F)c2=O)[C@H](C)N(C(=O)c2cc4cc([C@H]5CCOC(C)(C)C5)ccc4n2[C@@]2(c4noc(=O)[nH]4)C[C@@H]2C)CC32CC(OC3CC3)C2)cc(C)c1F (stereo partly shown) [Compound 193]	≤ 20
